46 compounds from patent US20230115176A1 (Ra Pharmaceuticals, Inc., priority 2019, published 2023) can be followed below.

Molecules are shown by their SMILES. pIC50: −log10 of the molar value. In brackets after ≈: the same amount, converted by molar mass.

Tested on in one series: not listed separately
Put plainly: Kinetic solubility in PBS pH 7.4, HPLC-UV (Example 21, Table 27). The series is classed as physicochemical. As to conditions: phosphate buffered saline, aqueous buffer, kinetic from dmso stock, 0.5 M PBS, shaken minimum 24 h at approximately 25° C., HPLC-UV 270 nm. As for the experimental part: Compounds were analyzed for kinetic solubility values using a standard kinetic solubility assay format. First, test compounds were dissolved in DMSO (Aldrich Chemical Co., Milwaukee, Wis., USA) at a concentration of 0.010 mol/L and used to prepare standard calibrators in DMSO solution. 500.0 μM, 250.0 μM, 125.0 μM, 62.5 μM, 31.2 μM, and 15.6 μM standards were prepared in a Greiner UV-Star clear V-bottom 96-well plate (Greiner-Bio One, Germany) for generating a standard curve. Using Alfa Aesar's Sodium phosphate, 0.2 M buffer solution, pH 7.4 (Alfa Aesar, Haverhill, Mass., USA), aqueous phosphate buffered saline (PBS) was prepared by diluting with Milli-Q water for a final concentration of 0.05 M. The pH of the solution was adjusted to 7.4±0.1 using 0.1 M hydrochloric acid (Fisher Scientific Waltham, Mass., USA) or 0.1 M aqueous sodium hydroxide (Fisher Scientific Waltham, Mass., USA).
10 μL of 0.010 mol/L DMSO test compound stock solutions were pipetted to separate 1.5 mL centrifuge tubes in triplicate. To these tubes, 190 μl of 0.05 M PBS was added. Each tube was gently vortexed for 5 sec. The tubes were shaken for a minimum of 24 h at approximately 25° C. After shaking, the solutions were transferred to 0.5 mL centrifuge filter tubes (MilliporeSigma, Burlington, Mass., USA) and centrifuged at 10,000 rpm for 5 min. After centrifugation, supernatants were collected and used for compound concentration analysis.
Compound concentrations in each solution were determined using high pressure liquid chromatography (HPLC) with ultraviolet (UV) detection and comparison with external standards. For HPLC, a Waters Acquity CSH Phenyl-Hexyl column (2.1 mm×50 mm, 1.7 μm) was used together with a generic gradient method on a Waters H-class system equipped with a diode array detector: Solvent A=0.1% formic acid in water, Solvent B=0.1% formic acid in acetonitrile (MilliporeSigma, Burlington, Mass., USA), flow=0.65 mL/min, (t=0 min: 95% A-5% B, t=4.75 min: 0% A-100% B, t=4.85 min: 0% A-100% B, t=4.86 min: 95% A-5% B, t=5 min: 95% A-5% B). UV quantifications were performed at 270 nm. Solution concentrations were calculated using Microsoft Excel.
Regarding `CCCCCOc1cc(N2CCCN(Cc3cccc4c3ccn4CC(=O)N3CCN(C)C(=O)C3)C2=O)ccc1OC` [CU0246], the kinetic solubility turned out to be 287 µM (≈ 165 µg/mL).
Still for that read-out and setting: then `CCCCCOc1cc(N2CCCN(Cc3cccc4c3ccn4CC(=O)N3CCOC(CN(C)C)C3)C2=O)ccc1OC` (centres unmarked) [CU0247], with 376 µM (≈ 228 µg/mL); and `CCCCCOc1cc(N2CCCN(Cc3ccnc4c3ccn4CC(=O)NC3CCN(C(C)C)CC3)C2=O)ccc1OC` [CU0255], with 436 µM (≈ 264 µg/mL).
`COc1ccc(N2CCCN(Cc3ccnc4c3ccn4CC(=O)N(C)C)C2=O)cc1OCCCC(F)(F)C(F)(F)F` [CU0256] returned a kinetic solubility of 22 µM (≈ 13.1 µg/mL).
For the compound `CCCCCOc1cc(N2CCCN(Cc3ccnc4c3ccn4CC(=O)N(C)C3CCN(CC)C3)C2=O)ccc1OC` (centres unmarked) [CU0257], the kinetic solubility is over 500 µM.
For the compound `CCCCCOc1cc(N2CCCN(Cc3ccnc4c3c(C)cn4CC(=O)N(C)C)C2=O)ccc1OC` [CU0258], the kinetic solubility was 462 µM (≈ 241 µg/mL).
The same measure, in the same setting: in the case of `CCCCCOc1cc(N2CCCN(Cc3ccnc4c3ccn4CC(=O)N3CCO[C@@H](COC)C3)C2=O)ccc1OC` [CU0260] it was 436 µM (≈ 259 µg/mL).

For a further series, the target named is T1, Human C5 (Homo sapiens, UniProt P01031).
T1 construct: purchased Complement Technology
T1 sequence (P01031 19-1676): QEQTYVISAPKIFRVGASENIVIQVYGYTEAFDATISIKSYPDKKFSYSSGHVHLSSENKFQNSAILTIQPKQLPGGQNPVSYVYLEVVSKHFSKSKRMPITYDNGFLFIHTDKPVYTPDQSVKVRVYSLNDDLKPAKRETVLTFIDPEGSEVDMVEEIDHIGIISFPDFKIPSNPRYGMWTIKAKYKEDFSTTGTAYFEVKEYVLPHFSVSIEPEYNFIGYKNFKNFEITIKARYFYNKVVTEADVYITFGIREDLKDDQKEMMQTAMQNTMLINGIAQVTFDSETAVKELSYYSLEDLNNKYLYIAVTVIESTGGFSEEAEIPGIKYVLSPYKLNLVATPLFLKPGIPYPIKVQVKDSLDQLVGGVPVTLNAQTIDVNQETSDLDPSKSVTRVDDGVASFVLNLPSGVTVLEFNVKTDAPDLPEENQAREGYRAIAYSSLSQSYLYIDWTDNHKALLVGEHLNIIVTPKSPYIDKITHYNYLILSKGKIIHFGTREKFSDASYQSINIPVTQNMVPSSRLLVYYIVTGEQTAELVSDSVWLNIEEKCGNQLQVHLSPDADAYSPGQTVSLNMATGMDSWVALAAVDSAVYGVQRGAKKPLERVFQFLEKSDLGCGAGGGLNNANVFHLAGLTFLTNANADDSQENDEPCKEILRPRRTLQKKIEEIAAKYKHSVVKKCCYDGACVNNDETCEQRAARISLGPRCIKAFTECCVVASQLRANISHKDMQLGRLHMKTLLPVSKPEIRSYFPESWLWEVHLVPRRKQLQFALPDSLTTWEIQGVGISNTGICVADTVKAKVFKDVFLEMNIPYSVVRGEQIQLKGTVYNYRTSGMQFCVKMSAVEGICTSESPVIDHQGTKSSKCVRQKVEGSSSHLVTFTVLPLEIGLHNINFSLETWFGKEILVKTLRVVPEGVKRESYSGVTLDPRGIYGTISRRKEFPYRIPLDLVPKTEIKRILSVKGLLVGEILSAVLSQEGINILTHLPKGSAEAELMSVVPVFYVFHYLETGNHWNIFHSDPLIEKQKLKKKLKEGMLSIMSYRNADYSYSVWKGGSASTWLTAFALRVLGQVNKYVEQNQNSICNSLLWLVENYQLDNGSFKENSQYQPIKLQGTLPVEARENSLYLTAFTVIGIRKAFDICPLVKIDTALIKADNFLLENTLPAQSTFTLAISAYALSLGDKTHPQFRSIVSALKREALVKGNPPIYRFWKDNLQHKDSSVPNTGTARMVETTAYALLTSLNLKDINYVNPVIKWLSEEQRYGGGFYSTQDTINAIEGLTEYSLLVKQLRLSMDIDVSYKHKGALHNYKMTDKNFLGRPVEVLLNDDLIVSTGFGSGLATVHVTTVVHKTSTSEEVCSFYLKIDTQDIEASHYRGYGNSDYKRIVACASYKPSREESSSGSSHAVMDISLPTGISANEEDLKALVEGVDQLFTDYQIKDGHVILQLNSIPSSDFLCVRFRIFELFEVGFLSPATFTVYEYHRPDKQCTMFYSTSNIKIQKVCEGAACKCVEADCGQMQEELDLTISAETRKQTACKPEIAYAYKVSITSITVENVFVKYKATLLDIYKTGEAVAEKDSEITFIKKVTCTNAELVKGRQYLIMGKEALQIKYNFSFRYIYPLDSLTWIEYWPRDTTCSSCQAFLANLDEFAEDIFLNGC
Put plainly: Red blood cell (RBC) hemolysis assay, luminescent (Example 28, Table 32). In kind it is cell-based. Conditions: sheep EA cells, 1.5% C5-depleted human serum, 0.5 nM human C5, 1 hour at 37° C., luminescence (Table 32).
The compound `COc1cc(CC(=O)N2CCNC(=O)C2)ccc1CN1C(=O)N(c2ccc(OC)c(OCCCC3CC3)c2)CC[C@@H]1C` [SC0118] showed a pIC50 of 8.85.
The same measure, in the same setting: then `COc1cc(CC(=O)N(C)[C@@H]2CCNC2)ccc1CN1C(=O)N(c2ccc(OC)c(OCCCC3CC3)c2)CC[C@@H]1C` [SC0121], with 8.82; and `CCCCCOc1cc(N2CC[C@H](C)N(Cc3ccnc4c3c(Cl)cn4CC(=O)N(C)OC)C2=O)ccc1OC` [SC0124], with 8.80; and `CCN1CC[C@@H](NC(=O)Cc2ccc(CN3C(=O)N(c4ccc(OC)c(OCCCC5CC5)c4)CC[C@@H]3C)c(OC)c2)C1` [SC0126], with 8.80.
Same read-out and setting: in the case of `CCCCCOc1cc(N2CC[C@H](C)N(Cc3ccnc4c3c(Cl)cn4CC(=O)N3CC[C@H](N(C)C)C3)C2=O)ccc1OC` [SC0129] it was 8.77; in that of `COc1cc(CC(=O)N[C@@H]2CNC[C@@H]2F)ccc1CN1C(=O)N(c2ccc(OC)c(OCCCC3CC3)c2)CC[C@@H]1C` [SC0130], 8.77; in that of `CCCCCOc1cc(N2CC[C@H](C)N(Cc3ccnc4c3c(Cl)cn4CCOCCOCCOC)C2=O)ccc1OC` [SC0131], 8.77.
On the same count and under the same terms, then `CCCCCOc1cc(N2CC[C@H](C)N(Cc3cccc4c3c(Cl)c(C)n4CC(=O)N(C)C)C2=O)ccc1OC` [SC0132], with 8.77; and `CCCCCOc1cc(N2CC[C@H](C)N(Cc3ccnc4c3c(Cl)cn4CC(=O)N3CC(O)(C(F)(F)F)C3)C2=O)ccc1OC` [SC0133], with 8.77; and `COc1cc(CC(=O)N(C)C)ccc1CN1C(=O)N(c2ccc(OC)c(OCCCC3CC3)c2)CC[C@@H]1C` [SC0135], with 8.74.
In turn, `COc1cc(CC(=O)N[C@@H]2CN(CCO)C[C@@H]2F)ccc1CN1C(=O)N(c2ccc(OC)c(OCCCC3CC3)c2)CC[C@@H]1C` [SC0136] gave a pIC50 of 8.74.
On the same count and under the same terms, then `COc1cc(Cc2cnccn2)ccc1CN1C(=O)N(c2ccc(OC)c(OCCCC3CC3)c2)CC[C@@H]1C` [SC0138], with 8.74.
`COc1cc(CC(=O)N2CCOCC2)ccc1CN1C(=O)N(c2ccc(OC)c(OCCCC3CC3)c2)CC[C@@H]1C` [SC0139] had a pIC50 of 8.72.
`COc1cc(CC(=O)N2CC[C@@H](N(C)C)C2)ccc1CN1C(=O)N(c2ccc(OC)c(OCCCC3CC3)c2)CC[C@@H]1C` [SC0140]: the pIC50 was 8.68.
On the same count and under the same terms, then `CCN1CC[C@H](NC(=O)Cc2ccc(CN3C(=O)N(c4ccc(OC)c(OCCCC5CC5)c4)CC[C@@H]3C)c(OC)c2)C1` [SC0141], with 8.68; and `COc1cc(CC(=O)N2CCOC(CN(C)C)C2)ccc1CN1C(=O)N(c2ccc(OC)c(OCCCC3CC3)c2)CC[C@@H]1C` (some centres unmarked) [SC0142], with 8.68.
`CCCCCOc1cc(N2CC[C@H](C)N(Cc3ccnc4c3c(Cl)cn4CC(=O)N[C@H]3CCNC3)C2=O)ccc1OC` [SC0143]: the pIC50 was 8.68.
Same read-out and setting: then `COc1ccc(N2CC[C@H](C)N(Cc3cccc4c3c(Cl)cn4CC(=O)N(C)C)C2=O)cc1OCCCCC1CC1` [SC0145], with 8.68.

In the next series the target is purified human C5 (Homo sapiens, UniProt P01031). Briefly: Red blood cell (RBC) hemolysis assay, optical, absorbance 412 nm (Example 10, Table 19). The series is classed as cell-based. As to conditions: antibody-sensitized sheep erythrocytes, […] human C5 depleted sera, 0.5 nM purified human C5, absorbance 412 nm; read-out: RBC Hemolysis IC50.
purified human C5, sequence (P01031 19-1676): as above
On to `COc1ccc(NC(=O)NCc2cccc3ccsc23)cc1OCCCC(C)C` [Compound C5INH-0294], for which the pIC50 was 6.46.
On the same count and under the same terms, in the case of `CNC(=O)c1cccc(CNC(=O)Nc2ccc(OC)c(OCCCC(C)C)c2)c1` [Compound C5INH-0319] it was 6.10; in that of `COc1ccc(N)cc1CNC(=O)Nc1ccc(OC)c(OCCCC(C)C)c1` [Compound C5INH-0321], 7.21; in that of `COc1ccc(NC(=O)NCc2ccc(CN3CCN(C)CC3)cc2)cc1OCCCC(C)C` [Compound C5INH-0324], 6.26.
The same measure, in the same setting: in the case of `COc1ccc(NC(=O)NCc2ccnc3c2ccn3CCN2CCOCC2)cc1OCCCC(C)C` [Compound C5INH-0370] it was 6.68; in that of `COc1ccc(NC(=O)N2CCCC2c2ccccc2OC)cc1OCCCC(C)C` (centres unmarked) [Compound C5INH-0371], 7.17; in that of `COc1ccc(NC(=O)NCc2ccnc3c2ccn3CCC(=O)O)cc1OCCCC(C)C` [Compound C5INH-0399], 6.21.
Same read-out and setting: then `COc1ccc(NC(=O)NCc2ccnc3c2ccn3CCN2CCCS2(=O)=O)cc1OCCCC(C)C` [Compound C5INH-0411], with 6.21; and `COc1ccc(NC(=O)NCc2cccc3cn[nH]c23)cc1OCCCC(C)C` [Compound C5INH-0448], with 5.37; and `COc1ccc(OCCCC(C)C)cc1NC(=O)NC(CO)c1ccccc1` (centres unmarked) [Compound C5INH-0487], with 6.08.
Take `COc1ccc(NC(=O)NCc2ccnc3c2ccn3CC(=O)N2CCCCC2)cc1OCCCC(C)C` [Compound C5INH-0507]: the pIC50 is 6.73.
The same measure, in the same setting: then `COc1ccc(NC(=O)NCc2ccnc3c2ccn3CC(=O)N2CCOCC2)cc1OCCCC(C)C` [Compound C5INH-0508], with 7.14.
Same read-out and setting: then `COc1cc(CNC(=O)C(C)(C)C)c(NC(=O)NCc2ccnc3[nH]ccc23)cc1OCCCC(C)C` [Compound C5INH-0509], with 6.54; and `COc1cc(CNC(=O)c2ccccc2)c(NC(=O)NCc2ccnc3[nH]ccc23)cc1OCCCC(C)C` [Compound C5INH-0510], with 6.93.
Still for that read-out and setting: in the case of `COc1ccc(NC(=O)NC(C(=O)NO)c2cccc(OC)c2O)cc1OCCCC(C)C` (centres unmarked) [Compound C5INH-0512] it was 7.38; in that of `COc1ccc(NC(=O)Nc2ccc3cc[nH]c3c2)cc1OCCCC(C)C` [Compound C5INH-0513], 5.48; in that of `COc1ccc(NC(=O)NCc2c(F)cnc3c2ccn3CC(=O)N(C)C)cc1OCCCC(C)C` [Compound C5INH-0515], 5.80.
With `COc1ccc(NC(=O)NCc2ccnc(NCCCN(C)C)c2OC)cc1OCCCC(C)C` [Compound C5INH-0532], the negative logarithm of the IC50 (pIC50) was 6.66.
On the same count and under the same terms, then `COc1ccc(NC(=O)CN2CCOCC2)cc1CNC(=O)Nc1ccc(OC)c(OCCCC(C)C)c1` [Compound C5INH-0533], with 6.17; and `COc1ccc(NC(=O)NCc2ccnc3c2ccn3Cc2ccncc2)cc1OCCCC(C)C` [Compound C5INH-0540], with 6.36; and `COc1ccc(NC(=O)NCc2cccc3c2OCCO3)cc1OCCCC(C)C` [Compound C5INH-0543], with 6.43.

The target in another series is T1, Human C5. Briefly: Red blood cell (RBC) hemolysis assay, luminescent (Example 13, Table 22). Conditions: sheep EA cells, […] C5-depleted human serum, 0.5 nM human C5, 1 hour 37° C., luminescence. In kind it is cell-based. An excerpt:
Compound CU0136 is a racemic mixture of Compound CU0186 and CU0187. Numbers in parenthesis following compound numbers indicate alternate enantiomers (as distinguished by retention time during chromatographical separation).
For the compound `CCCCCOc1cc(N2CCCN(Cc3cccc4c3ccn4CC(=O)N3CCN(C)C(=O)C3)C2=O)ccc1OC` [CU0246], the pIC50 was 7.97.
On to `CCCCCOc1cc(N2CCCN(Cc3cccc4c3ccn4CC(=O)N3CCOC(CN(C)C)C3)C2=O)ccc1OC` (centres unmarked) [CU0247], for which the pIC50 is 8.01.
Same read-out and setting: in the case of `CCCCCOc1cc(N2CCCN(Cc3ccnc4c3ccn4CC(=O)NC3CCN(C(C)C)CC3)C2=O)ccc1OC` [CU0255] it was 7.71; in that of `COc1ccc(N2CCCN(Cc3ccnc4c3ccn4CC(=O)N(C)C)C2=O)cc1OCCCC(F)(F)C(F)(F)F` [CU0256], 7.20; in that of `CCCCCOc1cc(N2CCCN(Cc3ccnc4c3ccn4CC(=O)N(C)C3CCN(CC)C3)C2=O)ccc1OC` (centres unmarked) [CU0257], 7.80.
On the same count and under the same terms, in the case of `CCCCCOc1cc(N2CCCN(Cc3ccnc4c3c(C)cn4CC(=O)N(C)C)C2=O)ccc1OC` [CU0258] it was 8.12; in that of `CCCCCOc1cc(N2CCCN(Cc3ccnc4c3ccn4CC(=O)N3CCO[C@@H](COC)C3)C2=O)ccc1OC` [CU0260], 7.60.
